These results are taken from US20260364184A1, “COMPOUND BASED ON OXOISOINDOLINYL-SUBSTITUTED TETRAHYDROPYRIMIDINE-DIONE AND USE THEREOF” (GLUETACS THERAPEUTICS (SHANGHAI) CO., LTD., priority 2023, published 2026).

In one experiment the target is T1, BTK (Homo sapiens, UniProt Q06187).
T1 construct: expression of target proteins in cells; endogenous in cells
Nature of the experiment: Western blot degradation of BTK. Type of experiment: cell-based. The following applies: Table IIA4, BTK inhibitor-based. The protocol:
(§1) Conventional Western blot assay was performed to evaluate the effects of the compounds of the present disclosure on the expression of target proteins in cells.
(§2) (1) Cell Seeding and Protein Harvesting: The selected cells were processed according to the cell seeding procedure and protein harvesting procedure in Table II-2.
(§3) (2) To the collected supernatant, 5×SDS sample loading buffer was added, followed by denaturation at 95 °C for 5 minutes. The denatured samples were then separated by SDS-PAGE electrophoresis on a polyacrylamide gel. Proteins were transferred to a nitrocellulose membrane (0.45 μm NC membrane), blocked with blocking buffer at room temperature for 1 hour, and subjected to antibody incubation and development procedures according to the antibody manufacturer's instructions (Cell Signaling Technology).
(§4) Half-Maximal Degradation Concentration value (the drug concentration required for degrading proteins by 50%, abbreviated as DC50) reads method: comparing the grayscale values of Western blot bands from drug-treated samples with those from blank DMSO-treated controls, and identifying the drug concentration range at which the grayscale value is half that of the DMSO-treated control bands.
(§5) DC50 values can be calculated using ImageJ software to measure grayscale values of Western blot bands from drug-treated samples. The concentration-response curve is fitted to estimate the drug concentration corresponding to half the grayscale value.
(§6) Target protein remaining (%) refers to the percentage of target protein remaining in cells after treatment with protein degrader compounds.
(§7) Calculation method for target protein remaining (%): Use ImageJ software to measure grayscale values of Western blot bands from drug (protein degrader)-treated samples. The grayscale value of drug-treated bands is divided by that of internal control protein bands, and the resulting quotient is normalized to obtain the relative percentage of remaining target protein after protein degrader treatment.
(§8) Target protein degradation rate (%)=1−target protein remaining (%).

The target in experiment [1] is T2, human Cereblon WT GST-tagged protein (CRBN) (Homo sapiens, UniProt Q96SW2).
T2 construct: purchased CISBIO 64BDCRBNPEH
T2 sequence (Q96SW2 whole entry): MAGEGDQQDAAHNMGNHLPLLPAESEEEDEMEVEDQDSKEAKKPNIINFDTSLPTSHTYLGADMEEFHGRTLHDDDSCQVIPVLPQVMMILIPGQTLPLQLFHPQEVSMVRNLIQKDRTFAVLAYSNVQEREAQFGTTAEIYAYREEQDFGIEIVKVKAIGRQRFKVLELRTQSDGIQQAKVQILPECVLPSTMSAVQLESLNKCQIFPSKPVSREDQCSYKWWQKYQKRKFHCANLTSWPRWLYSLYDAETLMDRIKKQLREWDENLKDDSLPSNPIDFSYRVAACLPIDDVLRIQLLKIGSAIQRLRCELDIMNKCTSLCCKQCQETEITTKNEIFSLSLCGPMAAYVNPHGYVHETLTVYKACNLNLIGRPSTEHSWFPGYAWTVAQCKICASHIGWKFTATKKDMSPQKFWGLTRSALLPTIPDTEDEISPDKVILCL
Kind of experiment: CRBN binding by HTRF (Cereblon binding kit). The method in brief: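 GST-tagged human Cereblon WT was incubated 3 h at room temperature with compound, thalidomide-Re tracer and Eu anti-GST antibody. Final compound concentrations were 10 to 0.00064 µM (7 points) or 2 and 0.5 µM. Inhibition rate was calculated from HTRF 665/620 nm ratios versus solvent and blank controls.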

The next experiment has as its target ER (Homo sapiens, UniProt P03372). Kind of experiment: Western blot degradation of ER. Type of experiment: cell-based. The following applies: Table IIA3, ER inhibitor-based. The protocol:
as §1, §2, §3, §4
(§9) DC50 values can be calculated using ImageJ software to measure grayscale values of Western blot bands from drug-treated samples. […]

A further experiment concerns the target CDK2 (Homo sapiens, UniProt P24941). Kind of experiment: Western blot degradation of CDK2. Type of experiment: cell-based. The conditions noted are these: hPBMC Cell; 24 hours. The protocol:
as §1, §2, §3, §4, §9

In another experiment the target is T3, Tau (Homo sapiens, UniProt P10636).
T3 construct: endogenous in cells
T3 sequence (P10636 whole entry): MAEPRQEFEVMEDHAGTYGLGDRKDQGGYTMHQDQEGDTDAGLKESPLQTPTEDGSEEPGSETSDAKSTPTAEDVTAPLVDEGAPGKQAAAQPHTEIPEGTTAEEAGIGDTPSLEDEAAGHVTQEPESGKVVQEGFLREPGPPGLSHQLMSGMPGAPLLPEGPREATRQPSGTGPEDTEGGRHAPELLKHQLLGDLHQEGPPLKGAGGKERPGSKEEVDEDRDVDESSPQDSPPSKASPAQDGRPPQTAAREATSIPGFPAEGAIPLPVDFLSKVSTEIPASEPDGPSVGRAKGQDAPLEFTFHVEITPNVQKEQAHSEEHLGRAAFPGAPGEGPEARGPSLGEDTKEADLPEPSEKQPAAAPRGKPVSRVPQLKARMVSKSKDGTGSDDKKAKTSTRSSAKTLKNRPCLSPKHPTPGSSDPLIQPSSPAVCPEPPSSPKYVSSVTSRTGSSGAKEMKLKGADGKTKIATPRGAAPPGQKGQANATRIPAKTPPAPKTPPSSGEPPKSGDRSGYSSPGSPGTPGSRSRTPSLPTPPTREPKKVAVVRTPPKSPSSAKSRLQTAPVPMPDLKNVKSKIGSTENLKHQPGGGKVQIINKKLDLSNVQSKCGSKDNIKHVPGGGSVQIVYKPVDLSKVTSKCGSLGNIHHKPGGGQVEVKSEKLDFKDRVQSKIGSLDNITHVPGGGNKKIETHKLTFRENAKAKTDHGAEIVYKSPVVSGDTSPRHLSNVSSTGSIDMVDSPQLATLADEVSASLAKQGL
Kind of experiment: Western blot degradation of Tau. Type of experiment: cell-based. The conditions noted are these: H4 Cell; 24 hours. Here is the method:
as §1, §2, §3, §4, §5, §6, §7, §8

For experiment [2], the system named is Human T lymphocytic leukemia cell line (Jurkat). Kind of experiment: Inhibition of Jurkat cell proliferation (CellTiter luminescent viability). The format is cell-based. The following applies: Table IC1, BTK inhibitor-based, 96 hours, read-out: Inhibitory activity (IC50, nM) on tumor cell proliferation, Jurkat.
Another experiment deals with JEKO-1. Kind of experiment: Inhibition of JEKO-1 cell proliferation (CellTiter luminescent viability). Type of experiment: cell-based, human. The conditions noted are these: Table IC1, BTK inhibitor-based; JEKO-1, 96 hours; read-out: Inhibitory activity (IC50, nM) on tumor cell proliferation, JEKO-1. The protocol: (§10) The tumor cells used herein were cultured in a cell culture medium listed in table 3 at 37 °C in an incubator with 5% CO2. Prior to experimentation, all cell lines used were correctly identified by STR profiling, and tested negative for mycoplasma contamination using a mycoplasma detection kit through routine screenings.
(§11) The IC50 values of the compounds of the present disclosure (including the compounds in Table 1, Table 2, and Examples 1-468) were determined using the CellTiter-Meiluncell Luminescent Cell Viability Assay Kit from Dalian Meilun Biotech Co., Ltd. The detailed procedure is as follows: Tumor cells were seeded in 96-well cell culture plates at the densities specified in Table 4. On the following day, the test compounds of the present disclosure were subjected to serial dilution. The dilution can be performed according to one of the following two methods: • (1) The first dilution method: The test compounds of the present disclosure (including the compounds in Table 1, Table 2, and Examples 1-468) were subjected to 5-fold serial dilutions starting from a highest concentration of 2000 μM, resulting in a total of 9 concentrations from high to low (2000, 400, 80, 16, 3.2, 0.64, 0.128, 0.0256, 0.00512 μM). Subsequently, 0.5 μL of the test compound dilution was transferred into the 96-well plate containing the cells, with each well containing 100 μL of cell culture medium. […] Into the 96-well plate, the diluted test compounds and corresponding detection reagents were added, resulting in final test compound concentrations of 500 nM and 10 nM, respectively. The experimental procedure is described below using the diluted 2 μM test compound as an example.
(§12) 0.5 μL of the aforementioned diluted compound of the present disclosure (including the compounds in Table 1, Table 2, and Examples 1-468) was added to the seeded cells in 100 μL of medium, yielding a final test compound concentration of 10 nM. After the cells were treated with the compounds of the present disclosure for a specified period, the cell viability assay reagent was added to the culture medium according to the kit's instructions to determine cell viability. […] All controls were treated using the same procedure as the compounds of the present disclosure. The growth inhibition curves for the compounds of the present disclosure were plotted using Prism GraphPad software, and the IC50 values were calculated therefrom.

For experiment [3], the system named is Human Multiple myeloma cell line (MM.1S). Nature of the experiment: Inhibition of MM.1S cell proliferation (CellTiter luminescent viability). The format is cell-based. The following applies: Table IC1, BTK inhibitor-based, 96 hours, read-out: Inhibitory activity (IC50, nM) on tumor cell proliferation, MM.1S. In outline:
(§13)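 Cells are seeded in 96-well plates, cultured at 37 °C, 5% CO2, and treated next day with 5-fold serial compound dilutions (stock series from 2000 μM; 0.5 μL into 100 μL medium). Viability is read by CellTiter-Meiluncell luminescence after the set exposure, and IC50 is taken from growth-inhibition curves.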

Experiment [4] concerns Human gastric cancer cell line MGC803. Kind of experiment: Inhibition of MGC803 tumor cell proliferation (CellTiter luminescent viability). Type of experiment: cell-based. The following applies: Table IC1, BTK inhibitor-based; MGC803, 96 hours; read-out: Inhibitory activity (IC50, nM) on tumor cell proliferation, MGC803. Here is the method:
as §10, §11, §12

Experiment [5] concerns Human non-small cell lung cancer cell line NCI-H1975. Nature of the experiment: Inhibition of H1975 cell proliferation (CellTiter luminescent viability). The following applies: Table IC1, BTK inhibitor-based; H1975, 96 hours; read-out: Inhibitory activity (IC50, nM) on tumor cell proliferation, H1975. Type of experiment: cell-based. In outline: as §13

T1 sequence (Q06187 whole entry): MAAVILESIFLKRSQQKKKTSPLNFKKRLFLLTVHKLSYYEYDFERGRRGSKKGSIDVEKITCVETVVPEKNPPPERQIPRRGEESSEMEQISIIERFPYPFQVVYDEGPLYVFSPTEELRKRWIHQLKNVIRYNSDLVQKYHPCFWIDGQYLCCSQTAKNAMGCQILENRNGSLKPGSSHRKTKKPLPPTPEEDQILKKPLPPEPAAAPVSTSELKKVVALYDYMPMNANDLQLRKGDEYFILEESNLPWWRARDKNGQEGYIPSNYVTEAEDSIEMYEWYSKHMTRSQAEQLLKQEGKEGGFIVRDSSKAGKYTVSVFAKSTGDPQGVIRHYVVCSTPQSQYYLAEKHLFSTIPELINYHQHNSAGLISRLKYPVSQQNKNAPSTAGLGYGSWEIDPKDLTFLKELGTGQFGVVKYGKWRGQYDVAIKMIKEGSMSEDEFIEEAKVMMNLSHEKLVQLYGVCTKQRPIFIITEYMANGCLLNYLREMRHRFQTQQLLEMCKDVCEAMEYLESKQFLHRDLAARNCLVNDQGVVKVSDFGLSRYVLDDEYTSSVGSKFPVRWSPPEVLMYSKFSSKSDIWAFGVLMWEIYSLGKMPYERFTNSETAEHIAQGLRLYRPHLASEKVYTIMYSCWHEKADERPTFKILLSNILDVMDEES
ER, sequence (P03372 whole entry): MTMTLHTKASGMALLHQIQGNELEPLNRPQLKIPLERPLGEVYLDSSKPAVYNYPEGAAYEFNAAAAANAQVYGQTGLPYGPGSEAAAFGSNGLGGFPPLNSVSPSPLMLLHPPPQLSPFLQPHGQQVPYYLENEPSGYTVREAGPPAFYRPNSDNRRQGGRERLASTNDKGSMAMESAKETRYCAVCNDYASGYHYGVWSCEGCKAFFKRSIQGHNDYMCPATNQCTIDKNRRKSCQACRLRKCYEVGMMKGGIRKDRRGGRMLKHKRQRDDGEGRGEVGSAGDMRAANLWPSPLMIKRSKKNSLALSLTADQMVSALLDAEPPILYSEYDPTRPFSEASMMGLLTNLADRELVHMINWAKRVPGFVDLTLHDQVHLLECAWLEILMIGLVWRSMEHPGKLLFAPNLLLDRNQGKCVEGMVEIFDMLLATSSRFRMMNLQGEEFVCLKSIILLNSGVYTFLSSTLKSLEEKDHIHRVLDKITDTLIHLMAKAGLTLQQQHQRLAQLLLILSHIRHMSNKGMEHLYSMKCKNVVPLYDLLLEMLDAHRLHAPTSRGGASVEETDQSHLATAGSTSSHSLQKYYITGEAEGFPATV
ER, sequence (Q96SW2 whole entry partner): as the sequence (Q96SW2 whole entry) above

Consider `Nc1ncnc2c1c(-c1ccc(Oc3ccccc3)cc1)nn2C1CCN(CC2CCN(c3cccc4c3C(=O)N(N3CCC(=O)NC3=O)C4=O)CC2)CC1` [GT-05077, 4-(4-((4-(4-amino-3-(4-phenoxyphenyl)-1H-pyrazolo[3,4-d]pyrimidin-1-yl)piperidin-1-yl)methyl)piperidin-1-yl)-2-(2,4-dioxotetrahydropyrimidin-1(2H)-yl)isoindoline-1,3-dione], for which the “Degradation of substrate protein BTK (substrate protein remaining %)” value at BTK is reported as “A (0%≤substrate protein remaining %≤80%)”.
In the case of `Nc1ncnc2c1c(-c1ccc(Oc3ccccc3)cc1)nn2C1CCN(CC2CCN(C3CCN(c4ccc5c(c4)C(=O)N(N4CCC(=O)NC4=O)C5=O)CC3)CC2)CC1` [GT-05096, 5-(4-((4-(4-amino-3-(4-phenoxyphenyl)-1H-pyrazolo[3,4-d]pyrimidin-1-yl)piperidin-1-yl)methyl)-[1,4′-bipiperidin]-1′-yl)-2-(2,4-dioxotetrahydropyrimidin-1(2H)-yl)isoindoline-1,3-dione], at BTK, the “Degradation of substrate protein BTK (substrate protein remaining %)” value is listed as “A (0%≤substrate protein remaining %≤80%)”. The inhibition at 0.5 µM in [1] (0.5 μM, read-out: Inhibition Rate at 0.5 μM (%)) lay in the range of 10 to 20%. In experiment [1] (2 μM, read-out: Inhibition Rate at 2 μM (%)), the inhibition at 2 µM was in the range of 53 to 60%.
On to `O=C1CCN(N2C(=O)c3ccc(CN4CCN(c5ccc([C@@H]6c7ccc(O)cc7OC[C@@H]6c6ccccc6)cc5)CC4)cc3C2=O)C(=O)N1` [GT-04778, 2-(2,4-dioxotetrahydropyrimidin-1(2H)-yl)-5-((4-(4-((3S,4R)-7-hydroxy-3-phenylchroman-4-yl)phenyl)piperazin-1-yl)methyl)isoindoline-1,3-dione], for which the “Degradation of substrate protein ER (substrate protein remaining %)” value on ER was “A (0%≤substrate protein remaining %≤80%)”.
Turning to `Cc1cc(S(=O)(=O)N2CCN(Cc3ccc4c(c3)C(=O)N(N3CCC(=O)NC3=O)C4=O)CC2)ccc1Nc1ncc(Br)c(Nc2cccc(F)c2C(N)=O)n1` [GT-06829, 2-((5-bromo-2-((4-((4-((2-(2,4-dioxotetrahydropyrimidin-1(2H)-yl)-1,3-dioxoisoindolin-5-yl)methyl)piperazin-1-yl)sulfonyl)-2-methylphenyl)amino)pyrimidin-4-yl)amino)-6-fluorobenzamide], the “Degradation of substrate protein CDK2 (substrate protein remaining %)” value on CDK2 is “A (0%≤substrate protein remaining %≤80%)”.
`Cn1ncc(Cl)c1-c1cc(C(=O)N[C@@H](Cc2cccc(F)c2)CN2CCN(CC3CCN(c4cccc5c4C(=O)N(N4CCC(=O)NC4=O)C5=O)CC3)CC2)sc1Cl` [GT-08591, (S)-5-chloro-4-(4-chloro-1-methyl-1H-pyrazol-5-yl)-N-(1-(4-((1-(2-(2,4-dioxotetrahydropyrimidin-1(2H)-yl)-1,3-dioxoisoindolin-4-yl)piperidin-4-yl)methyl)piperazin-1-yl)-3-(3-fluorophenyl)propan-2-yl)thiophene-2-carboxamide]: the “Degradation of substrate protein Tau (substrate protein remaining %)” value at Tau is “A (0%≤substrate protein remaining %≤80%)”.
Turning to `Nc1ncnc2c1c(-c1ccc(Oc3ccccc3)cc1)nn2C1CCN(Cc2ccc3c(c2)CN(N2CCC(=O)NC2=O)C3=O)CC1` [GT-05075, 1-(5-((4-(4-amino-3-(4-phenoxyphenyl)-1H-pyrazolo[3,4-d]pyrimidin-1-yl)piperidin-1-yl)methyl)-1-oxoisoindolin-2-yl)dihydropyrimidine-2,4 (1H,3H)-dione], the IC50 in experiment [2] lay within 50 to 100 nM; in the experiment on JEKO-1, 50 to 100 nM; in experiment [3] it was 10 to 50 nM; in [4], 50 to 100 nM; in experiment [5], 50 to 100 nM. Moreover, the “Degradation of substrate protein BTK (substrate protein remaining %)” value on BTK is reported as “A (0%≤substrate protein remaining %≤80%)”.
